Assay results from patent publication US9113629B2, “4-amino-6-(4-substituted-phenyl)-picolinates and 6-amino-2-(4-substituted-phenyl)-pyrimidine-4-carboxylates and their use as herbicides” (DOW AGROSCIENCES LLC, priority 2013, dated 2015).
Where two headings read alike, the source gives them in different places.

Experiments:
[1] = system: PAPRH: common poppy (Papaver rhoeas); experiment: Post-emergent Test III, herbicidal activity in wheat and barley; assay type: in vivo; conditions: for pest or weed control at 35 g/ha / pest or weed control at 70 g/ha / pest or weed control at 140 g/ha: Papaver rhoeas, post-emergence, 504 h, read-out: Visual Growth Reduction (%) 21 Days After Application PAPRH; for pest or weed control at 35 g/ha: 35 g ai/ha; for pest or weed control at 70 g/ha: 70 g ai/ha; for pest or weed control at 140 g/ha: 140 g ai/ha; for GR50 PAPRH / GR80 PAPRH: probit analysis
Method in brief: (§1)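 Plants at the second to third true-leaf stage, grown in a greenhouse at about 18/17 °C with a 14 h photoperiod, were sprayed post-emergence at 187 L/ha with the high rate and ½× to 1/16× serial dilutions in an acetone/DMSO/crop-oil/surfactant carrier. Injury was rated visually at 21 d on a 0–100% scale, and GR20–GR90 were derived by probit analysis.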

[2] = system: BROTE: downy brome (Bromus tectorum); experiment: as above; assay type: in vivo; conditions: for pest or weed control at 35 g/ha / pest or weed control at 70 g/ha / pest or weed control at 140 g/ha: Bromus tectorum, post-emergence, 504 h, read-out: Visual Growth Reduction (%) 21 Days After Application BROTE; for pest or weed control at 35 g/ha: 35 g ai/ha; for pest or weed control at 70 g/ha: 70 g ai/ha; for pest or weed control at 140 g/ha: 140 g ai/ha; for GR50 BROTE / GR80 BROTE: probit analysis, 21 days after application; for GR50 BROTE: dose for growth reduction of 50 percent; for GR80 BROTE: dose for growth reduction of 80 percent
Method in brief: as §1

[3] = dose for growth reduction of 50 percent, 21 days after application
[4] = dose for growth reduction of 80 percent, 21 days after application
[5] = Table 8, dose for 50 percent growth reduction, 21 d
[6] = Table 8, dose for 80 percent growth reduction, 21 d

COC(=O)c1nc(-c2ccc(Br)c(F)c2F)cc(N)c1Cl [Compound 114, methyl 4-amino-6-(4-bromo-2,3-difluorophenyl)-3-chloropicolinate]
pest or weed control at 35 g/ha [1]: 95 to 100%
pest or weed control at 70 g/ha [1]: 95 to 100%
pest or weed control at 140 g/ha [1]: 95 to 100%
GR50 PAPRH [1, 3]: 1 g ai/ha
GR80 PAPRH [1, 4]: 4 g ai/ha
pest or weed control at 35 g/ha [2]: 0 to 29%
pest or weed control at 70 g/ha [2]: 0 to 29%
pest or weed control at 140 g/ha [2]: 0 to 29%
GR50 BROTE [2]: >140 g ai/ha
GR80 BROTE [2]: >140 g ai/ha

Nc1c(F)c(-c2ccc(Br)c(F)c2F)nc(C(=O)O)c1Cl [Compound 147]
pest or weed control at 35 g/ha [2]: 75 to 84%
pest or weed control at 70 g/ha [2]: 85 to 94%
pest or weed control at 140 g/ha [2]: 85 to 94%
GR50 BROTE [2]: 6 g ai/ha
GR80 BROTE [2]: 28 g ai/ha

COC(=O)c1nc(-c2ccc(I)c(F)c2)c(C)c(N)c1Cl [Compound 79, Methyl 4-amino-3-chloro-6-(3-fluoro-4-iodophenyl)-5-methylpicolinate]
pest or weed control at 35 g/ha ([1]; Table 8, post-emergent, 21 d): 95 to 100%
pest or weed control at 70 g/ha ([1]; Table 8, post-emergent, 21 d): 95 to 100%
GR50 PAPRH [1, 5]: 1 g ai/ha
GR80 PAPRH [1, 6]: 1 g ai/ha

Nc1c(Cl)c(C(=O)O)nc(-c2ccc(I)c(F)c2)c1Cl [Compound 145, 4-Amino-3,5-dichloro-6-(3-fluoro-4-iodophenyl)picolinic acid]
pest or weed control at 35 g/ha ([1]; Table 8, post-emergent, 21 d): 95 to 100%
pest or weed control at 70 g/ha ([1]; Table 8, post-emergent, 21 d): 95 to 100%
pest or weed control at 140 g/ha ([1]; Table 8, post-emergent, 21 d): 95 to 100%
GR50 PAPRH [1, 5]: 1 g ai/ha
GR80 PAPRH [1, 6]: 1 g ai/ha

COC(=O)c1nc(-c2ccc(C(F)F)cc2)c(F)c(N)c1Cl [Compound 209]
pest or weed control at 35 g/ha [2]: 0 to 29%
pest or weed control at 70 g/ha [2]: 30 to 44%
GR50 BROTE [2]: 88 g ai/ha
GR80 BROTE [2]: >140 g ai/ha

Nc1cc(-c2cc(F)c(Br)cc2F)nc(C(=O)O)c1Cl [Compound 3]
pest or weed control at 35 g/ha ([1]; Table 8, post-emergent, 21 d): 95 to 100%
pest or weed control at 70 g/ha ([1]; Table 8, post-emergent, 21 d): 95 to 100%
GR50 PAPRH [1, 5]: 1 g ai/ha
GR80 PAPRH [1, 6]: 1 g ai/ha

COC(=O)c1nc(-c2ccc(Br)c(F)c2F)c(F)c(N)c1Cl [Compound 109, methyl 4-amino-6-(4-bromo-2,3-difluorophenyl)-3-chloro-5-fluoropicolinate]
pest or weed control at 35 g/ha [2]: 75 to 84%
pest or weed control at 70 g/ha [2]: 85 to 94%
GR50 BROTE [2]: 14 g ai/ha
GR80 BROTE [2]: 41 g ai/ha

COC(=O)c1nc(-c2ccc(I)cc2)c(F)c(N)c1Cl [Compound 118, Methyl 4-amino-6-(4-iodophenyl)-3-chloro-5-fluoropicolinate]
pest or weed control at 35 g/ha [1]: 95 to 100%
pest or weed control at 70 g/ha [1]: 95 to 100%
pest or weed control at 140 g/ha [1]: 95 to 100%
GR50 PAPRH [1, 3]: 1 g ai/ha
GR80 PAPRH [1, 4]: 1 g ai/ha
pest or weed control at 35 g/ha [2]: 60 to 74%
pest or weed control at 70 g/ha [2]: 85 to 94%
pest or weed control at 140 g/ha [2]: 85 to 94%
GR50 BROTE [2]: 31 g ai/ha
GR80 BROTE [2]: 64 g ai/ha

N#Cc1ccc(-c2nc(C(=O)O)c(Cl)c(N)c2F)cc1 [Compound 39]
pest or weed control at 35 g/ha [1]: 95 to 100%
pest or weed control at 70 g/ha [1]: 95 to 100%
pest or weed control at 140 g/ha [1]: 95 to 100%
GR50 PAPRH [1, 3]: 0 g ai/ha
GR80 PAPRH [1, 4]: 0 g ai/ha
pest or weed control at 35 g/ha [2]: 0 to 29%
pest or weed control at 70 g/ha [2]: 0 to 29%
pest or weed control at 140 g/ha [2]: 0 to 29%

Nc1c(F)c(-c2ccc(OC(F)F)cc2)nc(C(=O)O)c1Cl [Compound 143]
pest or weed control at 35 g/ha [1]: 85 to 94%
pest or weed control at 70 g/ha [1]: 85 to 94%
pest or weed control at 140 g/ha [1]: 85 to 94%
GR50 PAPRH [1, 3]: 1 g ai/ha
GR80 PAPRH [1, 4]: 8 g ai/ha
pest or weed control at 35 g/ha [2]: 0 to 29%
pest or weed control at 70 g/ha [2]: 45 to 59%
pest or weed control at 140 g/ha [2]: 45 to 59%
GR50 BROTE [2]: 95 g ai/ha
GR80 BROTE [2]: >140 g ai/ha

Nc1c(F)c(-c2ccc(Br)cc2)nc(C(=O)O)c1Cl [Compound 20]
pest or weed control at 35 g/ha [1]: 95 to 100%
pest or weed control at 70 g/ha [1]: 95 to 100%
pest or weed control at 140 g/ha [1]: 95 to 100%
GR50 PAPRH [1, 3]: 1 g ai/ha
GR80 PAPRH [1, 4]: 1 g ai/ha
pest or weed control at 35 g/ha [2]: 75 to 84%
pest or weed control at 70 g/ha [2]: 85 to 94%
pest or weed control at 140 g/ha [2]: 85 to 94%
GR50 BROTE [2]: 3 g ai/ha
GR80 BROTE [2]: 87 g ai/ha

COC(=O)c1nc(-c2ccc(OC(F)F)cc2)c(F)c(N)c1Cl [Compound 85]
pest or weed control at 35 g/ha [1]: 85 to 94%
pest or weed control at 70 g/ha [1]: 95 to 100%
pest or weed control at 140 g/ha [1]: 95 to 100%
GR50 PAPRH [1, 3]: 1 g ai/ha
GR80 PAPRH [1, 4]: 3 g ai/ha
pest or weed control at 35 g/ha [2]: 0 to 29%
pest or weed control at 70 g/ha [2]: 0 to 29%
pest or weed control at 140 g/ha [2]: 0 to 29%
GR50 BROTE [2]: >140 g ai/ha
GR80 BROTE [2]: >140 g ai/ha

Nc1cc(-c2ccc(I)cc2F)nc(C(=O)O)c1Cl [Compound 124]
pest or weed control at 35 g/ha ([1]; Table 8, post-emergent, 21 d): 95 to 100%
pest or weed control at 70 g/ha ([1]; Table 8, post-emergent, 21 d): 95 to 100%
GR50 PAPRH [1, 5]: 1 g ai/ha
GR80 PAPRH [1, 6]: 1 g ai/ha

COC(=O)c1nc(-c2ccc(Br)c(F)c2)nc(N)c1OC [Compound 171, Methyl 6-amino-2-(4-bromo-3-fluorophenyl)-5-methoxypyrimidine-4-carboxylate]
pest or weed control at 35 g/ha ([1]; Table 8, post-emergent, 21 d): 95 to 100%
pest or weed control at 70 g/ha ([1]; Table 8, post-emergent, 21 d): 95 to 100%
GR50 PAPRH [1, 5]: 1 g ai/ha
GR80 PAPRH [1, 6]: 1 g ai/ha

COC(=O)c1nc(-c2ccc(C#N)c(F)c2)c(F)c(N)c1Cl [Compound 135, methyl 4-amino-3-chloro-6-(4-cyano-3-fluorophenyl)-5-fluoropicolinate]
pest or weed control at 35 g/ha ([1]; Table 8, post-emergent, 21 d): 85 to 94%
pest or weed control at 70 g/ha ([1]; Table 8, post-emergent, 21 d): 85 to 94%
pest or weed control at 140 g/ha ([1]; Table 8, post-emergent, 21 d): 95 to 100%
GR50 PAPRH [1, 5]: 1 g ai/ha
GR80 PAPRH [1, 6]: 1 g ai/ha

COC(=O)c1nc(-c2ccc(I)c(F)c2)nc(N)c1OC [Compound 27, Methyl 6-amino-2-(3-fluoro-4-iodophenyl)-5-methoxypyrimidine-4-carboxylate]
pest or weed control at 35 g/ha ([1]; Table 8, post-emergent, 21 d): 95 to 100%
pest or weed control at 70 g/ha ([1]; Table 8, post-emergent, 21 d): 95 to 100%
GR50 PAPRH [1, 5]: 1 g ai/ha
GR80 PAPRH [1, 6]: 1 g ai/ha

COC(=O)c1nc(-c2ccc(C#N)cc2)c(F)c(N)c1Cl [Compound 142]
pest or weed control at 35 g/ha [1]: 85 to 94%
pest or weed control at 70 g/ha [1]: 95 to 100%
pest or weed control at 140 g/ha [1]: 95 to 100%
GR50 PAPRH [1, 3]: 1 g ai/ha
GR80 PAPRH [1, 4]: 4 g ai/ha
pest or weed control at 35 g/ha [2]: 0 to 29%
pest or weed control at 70 g/ha [2]: 0 to 29%
pest or weed control at 140 g/ha [2]: 0 to 29%
GR50 BROTE [2]: >140 g ai/ha
GR80 BROTE [2]: >140 g ai/ha

Nc1c(Cl)c(C(=O)O)nc(-c2ccc(Br)c(F)c2)c1Cl [Compound 43, 4-Amino-6-(4-bromo-3-fluorophenyl)-3,5-dichloropicolinic acid]
pest or weed control at 35 g/ha ([1]; Table 8, post-emergent, 21 d): 95 to 100%
pest or weed control at 70 g/ha ([1]; Table 8, post-emergent, 21 d): 95 to 100%
GR50 PAPRH [1, 5]: 1 g ai/ha
GR80 PAPRH [1, 6]: 1 g ai/ha

COc1c(N)nc(-c2ccc(I)c(F)c2)nc1C(=O)O [Compound 37, 6-Amino-2-(3-fluoro-4-iodophenyl)-5-methoxypyrimidine-4-carboxylic acid]
pest or weed control at 35 g/ha ([1]; Table 8, post-emergent, 21 d): 95 to 100%
pest or weed control at 70 g/ha ([1]; Table 8, post-emergent, 21 d): 95 to 100%
GR50 PAPRH [1, 5]: 1 g ai/ha
GR80 PAPRH [1, 6]: 1 g ai/ha

C=Cc1c(C(=O)O)nc(-c2ccc(Cl)c(F)c2)c(F)c1N [Compound 214]
pest or weed control at 35 g/ha [2]: 0 to 29%
pest or weed control at 70 g/ha [2]: 0 to 29%
pest or weed control at 140 g/ha [2]: 0 to 29%
GR50 BROTE [2]: >140 g ai/ha
GR80 BROTE [2]: >140 g ai/ha
